# Laboratory results: patent US20250059205A1, “Heterocyclic Compounds and Methods of Use” (AMGEN INC., priority 2021, published 2025)
# How the values were obtained:
# [1] = target: His-tagged KRAS G12D protein (Homo sapiens, UniProt P01116, G12D); assay: KRAS G12D TR-FRET Assay; format: binding
# Protocol: Compounds of interest were prepared in a dose-response titration in DMSO, and 80 nL were added via Labcyte Echo to each well of a 384-well plate (Perkin Elmer 6008280). […] The plate was incubated for 30 minutes at room temperature. Biotinylated KRPep-2d substrate (Amgen) was diluted to 20 nM in Assay Buffer and 2 μL was added to all wells and incubated for 1 h at room temperature. Detection Reagent (0.4 nM LANCE Eu-W1024 Anti-6xHis (Perkin Elmer AD0401), 5 nM streptavidin-d2 (Cisbio 610SADLA)) was prepared in Assay Buffer, then 4 μL was added to the plate and incubated for 1 h at room temperature. Plates were read using PerkinElmer EnVision (ex: 320 nm, em1: 665 nm, em2: 615 nm) and em1/em2 data was used to generate curve fits using a 4-parameter logistic model to calculate IC50 values.
# [2] = target: GDP-bound KRAS protein (aa 1-169), containing both G12D and C118A amino acid substitutions (Homo sapiens, UniProt P01116, C118A/G12D); assay: KRAS G12D Coupled Nucleotide Exchange Assay; format: biochemical; conditions: 2 h compound pre-incubation
# GDP-bound KRAS protein (aa 1-169), containing both G12D and C118A amino acid substitutions, sequence (P01116 1-169 isoform P01116-2 G12D/C118A): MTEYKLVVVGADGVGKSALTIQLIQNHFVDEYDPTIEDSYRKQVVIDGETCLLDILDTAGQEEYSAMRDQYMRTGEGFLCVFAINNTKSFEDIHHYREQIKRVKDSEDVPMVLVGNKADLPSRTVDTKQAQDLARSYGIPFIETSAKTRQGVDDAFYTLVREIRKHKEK
# Protocol: Following compound pre-incubation, purified SOS protein (aa 564-1049) and GTP (Roche 10106399001) were added to the assay wells and incubated for an additional 30 min. […] The assay plates were then read on a PerkinElmer EnVision Multilabel Reader, using AlphaScreen® technology, and data were analyzed using a 4-parameter logistic model to calculate IC50 values.
# His-tagged KRAS G12D protein, sequence (P01116 1-188 isoform P01116-2 G12D): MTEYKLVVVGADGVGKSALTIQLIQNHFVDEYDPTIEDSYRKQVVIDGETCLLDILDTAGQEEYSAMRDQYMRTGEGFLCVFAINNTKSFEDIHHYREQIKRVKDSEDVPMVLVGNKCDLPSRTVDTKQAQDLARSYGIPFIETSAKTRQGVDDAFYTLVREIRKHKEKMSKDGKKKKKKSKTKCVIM
Structure (SMILES),IC50 [1] [nM],Avg 2 h Coupled Exchange IC50 [2] [nM]
"Oc1ccc(Cl)c(-c2ccc3c(N4[C@@H]5CC[C@H]4CNC5)nc(OC[C@@]45CCCN4C[C@H](F)C5)nc3c2)c1F [Example 35, 3-(4-((1R,5S)-3,8-diazabicyclo[3.2. 1]octan-8-yl)-2-(((2R,7aS)-2-fluorotetrahydro-1H-pyrrolizin-7a(5H)-yl)methoxy)quinazolin-7-yl)-4-chloro-2-fluorophenol]",4700,1820
"CN1C[C@H](F)C[C@H]1COc1nc2c(F)c(-c3cc(O)cc4ccccc34)c(Cl)cc2c(N2C[C@H]3CC[C@@H](C2)N3)c1C#N [Example 63, 4-((1R,5S)-3,8-diazabicyclo[3.2. 1]octan-3-yl)-6-chloro-8-fluoro-2-(((2S,4R)-4-fluoro-1-methylpyrrolidin-2-yl)methoxy)-7-(3-hydroxynaphthalen-1-yl)quinoline-3-carbonitrile]",> 25000,555
"CN1C[C@H](F)C[C@H]1COc1nc(N2[C@@H]3CC[C@H]2CNC3)c2cc(F)c(-c3cc(O)cc4ccccc34)c(O)c2n1 [Example 103, 4-((1R,5S)-3,8-diazabicyclo[3.2.1]octan-8-yl)-6-fluoro-2-(((2S,4R)-4-fluoro-1-methylpyrrolidin-2-yl)methoxy)-7-(3-hydroxynaphthalen-1-yl)quinazolin-8-ol]",1080,517

# Continued by falling IC50 [1], values first:
IC50 [1] [nM],Avg 2 h Coupled Exchange IC50 [2] [nM],Structure (SMILES)
2650,1170,"N#Cc1c(OC[C@@]23CCCN2C[C@H](F)C3)nc2c(F)c(-c3cc(O)cc4ccccc34)ccc2c1N1C[C@H]2CC[C@@H](C1)N2 [Example 62, 4-((1R,5S)-3,8-diazabicyclo[3.2. 1]octan-3-yl)-8-fluoro-2-(((2R,7aS)-2-fluorotetrahydro-1H-pyrrolizin-7a(5H)-yl)methoxy)-7-(3-hydroxynaphthalen-1-yl)quinoline-3-carbonitrile]"
2560,1670,"N#Cc1c(OC[C@@]23CCCN2C[C@H](F)C3)nc2c(F)c(-c3cc(O)cc4ccccc34)c(Cl)cc2c1N1C[C@H]2CC[C@@H](C1)N2 [Example 61, 4-((1R,5S)-3,8-diazabicyclo[3.2. 1]octan-3-yl)-6-chloro-8-fluoro-2-(((2R,7aS)-2-fluorotetrahydro-1H-pyrrolizin-7a(5H)-yl)methoxy)-7-(3-hydroxynaphthalen-1-yl)quinoline-3-carbonitrile]"
940,300,"Cn1ncc2cccc(-c3ccc4c(N5C[C@H]6CC[C@@H](C5)N6)nc(OC[C@@]56CCCN5C[C@H](F)C6)nc4c3)c21 [Example 66, 4-((1R,5S)-3,8-diazabicyclo [3.2. 1]octan-3-yl)-2-(((2R,7aS)-2-fluorotetrahydro-1H-pyrrolizin-7a(5H)-yl)methoxy)-7-(1-methyl-1H-indazol-7-yl)quinazoline]"
546,259,"Oc1cc(-c2ccc3c(N4[C@@H]5CC[C@H]4CNC5)nc(OC[C@@]45CCCN4C[C@H](F)C5)nc3c2F)c2cnccc2c1 [Example 31, 8-(4-((1R,5S)-3,8-diazabicyclo[3.2. 1]octan-8-yl)-8-fluoro-2-(((2R,7aS)-2-fluorotetrahydro-1H-pyrrolizin-7a(5H)-yl)methoxy)quinazolin-7-yl)isoquinolin-6-ol]"
512,199,"Cc1ccc2cn[nH]c2c1-c1ccc2c(N3C[C@H]4CC[C@@H](C3)N4)nc(OC[C@@]34CCCN3C[C@H](F)C4)nc2c1 [Example 67, 4-((1R,5S)-3,8-diazabicyclo[3.2. 1]octan-3-yl)-2-(((2R,7aS)-2-fluorotetrahydro-1H-pyrrolizin-7a(5H)-yl)methoxy)-7-(6-methyl-1H-indazol-7-yl)quinazoline]"
